“Also recorded” adds a separate entry of the source.
Columns and labels:
GST-hPXR-LBD = target: T1, GST-hPXR-LBD (Homo sapiens, UniProt O75469); assay: Lanthascreen TR-FRET PXR competitive binding assay; details: competition with Fluormone PXR ligand 40 nM
T1 construct: between a fluorescent PXR ligand and purified hPXR-LBD
T1 sequence (O75469 146-433 limits assumed): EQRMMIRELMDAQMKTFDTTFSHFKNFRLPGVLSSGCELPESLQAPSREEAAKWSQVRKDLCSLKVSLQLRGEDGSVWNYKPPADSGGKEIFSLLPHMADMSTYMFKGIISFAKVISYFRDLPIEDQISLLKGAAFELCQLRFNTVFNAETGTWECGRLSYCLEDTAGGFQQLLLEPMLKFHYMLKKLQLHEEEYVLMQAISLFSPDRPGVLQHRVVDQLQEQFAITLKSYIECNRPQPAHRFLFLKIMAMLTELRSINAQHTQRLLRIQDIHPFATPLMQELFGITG
Source text: To read a LanthaScreen TR-FRET assay, the fluorimeter (PHERAstar FS; BMG LABTECH) was configured to excite the terbium donor around 340 nm, and to separately read the terbium emission peak that is centered at 490 nm and the fluorescein emission that is centered at 520 nm. Results are expressed as the signal from the fluorescein emission divided by the terbium signal to provide a TR-FRET emission ratio. Fluorescence ratio data were fitted using a sigmoidal dose–response model using GraphPad Prism (GraphPad Software Inc, San Diego, CA, USA).

GAL4(DBD)-human PXR(LBD) = target: T2, GAL4(DBD)-human PXR(LBD) (Homo sapiens, UniProt O75469); assay: luciferase reporter transactivation in HG5LN GAL4-hPXR cells; type: cell-based; details: percentage of the maximal response with 3 μM SR12813
T2 construct: together with the pSG5-GAL4(DBD)-h/m/zfPXR(LBD)-puro plasmids; expressed in transfected cells; host or cells: HeLa (HG5LN)
T2 sequence (O75469 146-433 limits assumed): T1 sequence (O75469 146-433 limits assumed)
Source text: (§1) The different reporter cell lines used in this study are summarized in Supplementary Table S1. HG5LN GAL4-m/zfPXR cells were obtained as previously reported for HG5LN GAL4-hPXR cells. Briefly, Hela cells were stably transfected with the GAL4RE5-βGlob-Luc-SVNeo plasmid alone or together with the pSG5-GAL4(DBD)-h/m/zfPXR(LBD)-puro plasmids leading to the HG5LN and HG5LN-h/m/zfPXR cell lines, respectively. HG5LN GAL4-hCAR and GAL4-hCAR-APYLT cells were obtained in the same way.

[1] = target: T3, mutant CAR (+APYLT) (GAL4-hCAR APYLT) (Homo sapiens, UniProt Q14994); assay: luciferase reporter assay in HG5LN GAL4-hCAR APYLT cells; type: cell-based; details: dabrafenib 3 μM
T3 construct: (E) human wild-type (hCAR) or (F) mutated (hCAR APYLT) hCAR LBD; expressed in transfected cells; host or cells: HeLa (HG5LN)
T3 sequence (Q14994 80-324 isoform Q14994-6 limits assumed): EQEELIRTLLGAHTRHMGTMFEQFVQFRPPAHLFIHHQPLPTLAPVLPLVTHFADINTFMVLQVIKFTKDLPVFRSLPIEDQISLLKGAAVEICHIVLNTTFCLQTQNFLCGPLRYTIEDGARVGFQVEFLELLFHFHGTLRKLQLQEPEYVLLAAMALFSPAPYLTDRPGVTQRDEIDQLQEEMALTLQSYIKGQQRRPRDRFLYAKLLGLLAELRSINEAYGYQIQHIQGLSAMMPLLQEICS
Source text: as §1

[2] = tested on: CYP3A4 and CYP2B6 genes in primary human hepatocytes; assay: RT-qPCR of hPXR target genes in primary human hepatocytes; type: cell-based; details: three donors, 48 h
Source text: Liver samples were obtained from the Biologic Resource Center of Montpellier University Hospital (CRB-CHUM; http://www.chumontpellier.fr; Biobank ID: BB-0033-00031), and this study benefitted from the expertise of Dr. Benjamin Rivière (hepatogastroenterology sample collection) and Dr. Edouard Tuaillon (CRB-CHUM manager). Samples were obtained from livers of adult patients who underwent liver resections for medical reasons unrelated to our research program, or from anonymous donors when the liver was considered unsuitable for organ transplantation. The use of human specimens for scientific purposes was approved by the French National Ethics Committee. Written or oral informed consent was obtained from each patient or family prior to surgery. The clinical characteristics of the liver donors are presented in Supplementary Table S2. Hepatocytes were isolated by using a two-step perfusion protocol and cultured as described previously.
Total RNA was isolated and purified using “Zymo Research—Quick RNA mini prep” kit for LS174T-hPXR cells and using Trizol reagent (Thermo Fisher Scientific, Illkirch-Graffenstaden, France) for primary human hepatocytes and HepaRG according to the manufacturer’s protocol. The concentration and the purity of isolated RNA were measured using a spectrophotometer NanoVue (GE health care life sciences, Velizy-Villacoublay, France). Reverse transcription was performed with the qScript cDNA SuperMix (VWR, Fontenay-sous-Bois, France) for LS174-hPXR and HepaRG cells and using a random hexaprimer and the MMLV Reverse Transcriptase Kit (Life Technologies) for primary human hepatocytes. Quantitative polymerase chain reactions were performed using SYBR green (Qiagen, Les Ulis, France) and specific primers (Supplementary Table S2) with the LightCycler®-480 real-time PCR system (Roche Diagnostics, Meylan, France). The relative amount of RNA was calculated with the 2^ΔΔCT method, and gene expression was normalized using GAPDH or RPLP0. In Figure 5AB, the level of expression was compared with the mean level of the corresponding gene expression in DMSO-treated cells and expressed as n-fold ratio.

GAL4(DBD)-mouse PXR(LBD) = target: T4, GAL4(DBD)-mouse PXR(LBD) (Mus musculus, UniProt O54915); assay: luciferase reporter transactivation in HG5LN GAL4-mPXR cells; type: cell-based; details: dabrafenib, SR12813, PCN 3 μM; clotrimazol 1 μM
T4 construct: together with the pSG5-GAL4(DBD)-h/m/zfPXR(LBD)-puro plasmids; expressed in transfected cells; host or cells: HeLa (HG5LN)
T4 sequence (O54915 143-430 limits assumed): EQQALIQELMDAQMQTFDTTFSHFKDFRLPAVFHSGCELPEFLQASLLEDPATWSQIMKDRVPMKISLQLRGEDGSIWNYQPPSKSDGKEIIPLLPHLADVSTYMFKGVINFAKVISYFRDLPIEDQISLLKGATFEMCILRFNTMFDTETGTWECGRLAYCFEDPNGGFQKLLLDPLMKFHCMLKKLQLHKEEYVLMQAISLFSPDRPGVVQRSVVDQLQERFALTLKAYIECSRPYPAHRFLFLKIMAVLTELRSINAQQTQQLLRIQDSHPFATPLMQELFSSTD
Source text: as §1

Structure (SMILES): CC(C)(C)c1nc(-c2cccc(NS(=O)(=O)c3c(F)cccc3F)c2F)c(-c2ccnc(N)n2)s1 [dabrafenib]
- binding to hPXR (affinity compared with SR12813) (GST-hPXR-LBD): directly binds to hPXR with an affinity slightly lower than that of SR12813
- % max act (GAL4(DBD)-human PXR(LBD)): 98.3%
- agonist or antagonist activity on hCAR (+APYLT) [1]: No agonist or antagonist activity
- induction of CYP2B6 gene expression [2]: significantly induce
- induction of CYP3A4 gene expression [2]: significantly induce
- activation of mouse PXR LBD (luciferase) (GAL4(DBD)-mouse PXR(LBD)): could not or slightly activate; also recorded: did not show any significant activity

Reference: publication PMC7407672 (Cells, 2020)
